# Key:
# [1] = tested on: VM-NSC cultures; assay: Marker expression by immunocytochemistry and real-time PCR; assay type: cell-based, rat
# Procedure: (§1) Cultured cells and cryosectioned brain slices were fixed with 4% paraformaldehyde (PFA), and blocked for 40 minutes in blocking solution (Blocking solution: 1% BSA+0.3% Triton X-100). For 5hmC and 5mC staining, the fixed cells were incubated with 2 N HCl for 20 minutes before the blocking reaction. The samples were incubated overnight at 4° C. in the blocking solution containing the primary antibodies listed in Supplemental Table 1. Secondary antibodies tagged with Alexa 488 (1:200, Invitrogen, Carlsbad, Calif.) and Cy3 (1:200, Jackson Immunoresearch Laboratories, West Grove, Pa.) were applied. Stained samples were mounted in Vectashield medium containing 40,6-diamidino-2-phenylindole (DAPI; Vector Laboratories, West Grove, Pa.) and analysed under an epifluorescence (Leica, Wetzlar, Germany) or confocal microscope (Leica TSP SP5).
# Immunostained cells were counted in 10-20 random areas of each culture coverslip using an eyepiece grid at a magnification of 200×. Data are expressed as the mean±SEM of three to eight independent cultures. For every figure, statistical tests are justified as appropriate. Statistical comparisons were made using Student's t-test (unpaired) or one-way ANOVA followed by Tukey's post hoc analysis using SPSS® Statistics 21; IBM Inc. The relevant n, P-values, and statistical analysis methods are indicated in each figure legend.
# [2] = tested on: Nurr1 and TH promoters; assay: DIP-qPCR and ChIP-qPCR on Nurr1 and TH promoters; assay type: cell-based, rat
# From the text: (§2) Foxa2 and Nurr1 binding sites were identified using the Jaspar database (http://jaspar.genereg.net/) using an 80% score threshold. Predicted Foxa2 and Nurr1 binding sites were coupled with phylogenetic footprinting to eliminate spurious predictions with specified position weight matrix (PWM) settings, as described in the following reference. [Sandelin, A., and Wasserman, W. W. (2004). Constrained binding site diversity within families of transcription factors enhances pattern discovery bioinformatics. Journal of molecular biology 338, 207-215] (Table 2). ChIP and DIP assays were carried out as described in the following reference. [Prolonged membrane depolarization enhances midbrain dopamine neuron differentiation via epigenetic histone modifications. Stem Cells 29, 1861-1873]. Briefly, chromatin or genomic DNA was sheared to an average of 200-500 bp in length using a sonication Bioruptor (BMS, Seoul, Korea) and immunoprecipitated using the antibodies listed in Table 1. Immunoprecipitated DNA fragments were collected using magnetic beads (Invitrogen), purified, and subjected to real-time PCR using the primers listed in Table 3. The comparative cycle threshold method was used to quantify the results. Data were normalized to the input DNA.
# [3] = tested on: TH+ DA neurons differentiated from VM-NSCs; assay: Morphologic and functional maturation of DA neurons; assay type: cell-based, rat; settings: VC during expansion
# Procedure: To estimate morphological maturation, total fiber lengths emanating from TH+DA neuronal cells were measured. The pre-synaptic activity of DA neurons was determined by measuring the levels of DA neurotransmitter released in the differentiated VM-NSC cultures. Media incubated for 2 days (differentiation day 13-15) were collected and used in the DA level determinations using an ELISA kit (BA E-5300, LDN). In addition, DA release evoked by membrane depolarization was estimated by incubating the cultures (at differentiation day 15) in fresh N2 media in the presence or absence of 56 mM KCl for 30 min. The evoked DA release was calculated by subtracting the DA release without KCl from the DA level with KCl.
# [4] = tested on: VM-NSCs; assay: DA neuron differentiation (TH+ cell yield) of in vitro expanded VM-NSCs; assay type: cell-based, rat
# Procedure: NSCs were cultured from rat embryo VMs (Sprague Dawley) at embryonic day 12 (E12) on 6-cm dishes or 24-well plates pre-coated with 15 μg/ml poly-L-ornithine (PLO; Sigma)/1 ug/ml fibronectin (FN; Sigma, St. Louis, Mo.) in serum-free N2 medium. NSCs were induced to proliferate by the mitogenic action of basic fibroblast growth factor (bFGF, 20 ng/ml, R&D Systems, Minneapolis, Minn.). The proliferating VM-NSCs cultured in 6-cm dishes were passaged at every 4th day in mitogen-supplemented medium with or without Vitamin C (VC; Sigma; 200 μM), glutathione reduced form (GSH; Sigma; 200 μM), vitamin E (alpha-tocopherol; Sigma; 200 μM), or N-acetylcysteine (NAc; Sigma; 100 μM). The expanded NSCs at the last day of each passage were induced to differentiate by withdrawing the mitogen and antioxidants from the media (for 2-16 days). Human NSC cultures were derived by in vitro differentiation of hESCs (H9) and cultured as described in the following reference. [Rhee, Y. H., Ko, J. Y., Chang, M. Y., Yi, S. H., Kim, D., Kim, C. H., Shim, J. W., Jo, A. Y., Kim, B. W., Lee, H., et al. (2011). Protein-based human iPS cells efficiently generate functional dopamine neurons and can treat a rat model of Parkinson disease. The Journal of clinical investigation 121, 2326-2335]. The human NSCs were expanded in ITS media supplemented with bFGF (20 ng/ml) in the presence or absence of VC for two NSC passages. Differentiation of the passaged human NSCs was induced by withdrawal of bFGF and VC in ITS supplemented with brain-derived neurotrophic factor (20 ng/ml; R&D Systems), glial cell line derived neurotrophic factor (20 ng/ml; R&D Systems), and dibutyryl cAMP (0.5 mmol/1; Sigma). Cultures were maintained at 37° C. in humidified 5% CO2 incubators.
# as §1
# Immunostained cells were counted in 10-20 random areas of each culture coverslip using an eyepiece grid at a magnification of 200×. Data are expressed as the mean±SEM of three to eight independent cultures. […]
# [5] = tested on: human TH promoter regions; assay: DIP-qPCR/ChIP-qPCR on human TH promoter; assay type: cell-based
# From the text: as §2
# [6] = tested on: JMJD3; assay: Jmjd3 enzyme activity in nuclear fraction; assay type: biochemical, rat; settings: VC 200 μM, 4 days of proliferation
# Procedure: TET and JMJD3 activities were measured using Epigenase™ 5mC hydroxylase TET Activity/Inhibition Assay Kit and Epigenase™ JMJD3/UTX Demethylase Activity/Inhibition Assay Kit (Epigentek, Farmingdale, N.Y.), respectively. Briefly, cells from two 10 cm-dishes were harvested after 4 days of proliferation with or without VC (200 μM) treatment. Nuclear fractions were obtained from the cells using the EpiQuik nuclear extraction kit (Epigentek), and subjected to enzyme activity analyses.
smiles,measurement,setting,value
"O=C1O[C@H]([C@@H](O)CO)C(O)=C1O [VC, L-ascorbic acid]",percentage of cells expressing Foxa2 and Lmx1a,"[1]; D0, VC during expansion",enhanced
same,percentage of Nurr1+ cells,"[1]; D2, VC during proliferating NSC stage",greater
same,mRNA expression of GFAP and GFAP+ astrocyte yields,[1]; VC during proliferating VM-NSC stage,significantly enhanced
same,mRNA expression levels of TPH2 and GAD67,[1]; VC during proliferation,no significant alteration
same,"expression of Nestin, Sox2 and Otx2 markers",[1]; proliferating VM-NSC cultures,not altered
same,mRNA levels of Foxa2 and Lmx1a,"[1]; real-time PCR, D0",enhanced
same,Nurr1 protein abundance at TH promoter,"[2]; ChIP-qPCR, D6",significantly greater
same,Foxa2 recruitment to Nurr1 promoter regions,"[2]; D2, culture pre-treated with VC",more abundantly recruited
same,5hmC/5mC and H3K27m3/H3K9m3 at Nurr1 promoter regions,"[2]; from D0, compared to untreated controls",increased 5hmC levels with 5mC decreases and the decrease of H3K27m3/H3K9m3
same,total fiber lengths per TH+ DA neuron,[3]; D15,164 um
same,presynaptic DA neuronal function measured by DA release,[3]; medium 48 hr (D13-15) and KCl evoked 30 min,greater
same,synapsin+ puncta in TH+ DA neuron neurites,[3]; vs untreated control,more abundantly localized
same,"expression of other DA phenotypes (VMAT2, AADC and DAT) in TH+ cells","[4]; P1, VC during expansion, differentiated 12 days without VC",Virtually all
same,TH+ cell yields (% of total DAPI+ cells),"[4]; VC 200 uM during expansion, P1 cultures, differentiated without VC, D6",10.85±1.2%
same,TH+ DA neuronal yields,"[4]; VC during expansion, P2 cultures, differentiated without VC",1.22±0.1%
same,prevention of DA neuron loss in passaged cultures,"[4]; antioxidant during expansion for 8 days (up to P1), differentiation without antioxidants",prevention of DA neuron loss
same,H3K9m3/H3K27m3 levels in human TH promoter regions,[5],undetectable
same,levels of 5hmC at human TH promoter regions,"[5]; two consensus Nurr1 binding sites, D6",enhanced
same,Jmjd enzyme activity in nuclear fractions,[6],increase
